The values below come from article PMC6429710, “Structure–activity relationships in a series of antiplasmodial thieno[2,3-b]pyridines” (Malaria Journal, 2019).

The test system of data set [1] is asexual erythrocytic stages of transgenic NF54-luc P. falciparum. In words: Luciferase-based viability screening for antiplasmodial activity. The format is cell-based, Plasmodium falciparum. The conditions noted are these: 48 h. Here is the method: For the luciferase-based viability assays, asexual erythrocytic stages of transgenic NF54-luc P. falciparum were used. These parasites constitutively express high luciferase levels. The parasites were cultured as described previously. Parasite cultures with parasitaemia of 0.5–1% were dispensed in triplicate into white 96-well flat-bottom plates (each well contains 250 µL) (NUNC, Roskilde, Denmark) and incubated in the presence of 3 µM test compounds for 48 h (37 °C, 90% N2, 5% CO2, and 5% O2). 0.01% DMSO was included in the untreated infected RBC cultures as negative control, since the compounds stock initially was diluted in DMSO and each treatment well also contained 0.01% DMSO. Subsequently, 100 µL RPMI1640 media was removed from each well and a 100 µL volume of the Bright-Glo® substrate solution was added to each well. The resultant cleavage product of the reaction, light, was measured using a […] luminometer (Thermo), to ascertain viable parasites. Untreated cultures were used as negative controls and to calculate the inhibition rate (0% inhibition of parasite growth). Experiments were performed in triplicate and were repeated as a whole at least twice. Blasticidin (Sigma-Aldrich, St. Louis, MO, USA), used for selection of transfected parasites, was included as a positive control on each plate and gave > 90% inhibition of parasite growth at concentration 2 µg/mL. […] For active compounds IC50 values were determined from dose–response curves. Calculation of parasite growth inhibition, of the IC50 values and statistical analysis were carried out using GraphPad Prism Version 6.0b (GraphPad Software, Inc. San Diego, CA).

A short description of data set [2]: Kinetic solubility by laser nephelometry. The format is physicochemical. The conditions noted are these: aqueous phosphate buffer pH 7.4, 1% DMSO, 25 °C, mean ± standard deviation. Here is the method: Kinetic solubility indicates the solubility of the most rapidly precipitating form. Kinetic solubilities of 1 and 4h were determined by laser nephelometry using the […] nephelometer (BMG LabTech, Ortenberg, Germany) and F-bottom transparent 96-well plates. The instrument uses red laser light (635 nm, 80% intensity), which passes through the 96-well plate and which is scattered by turbid suspensions. Each compound was measured six times at 25 °C by preparing three independent stock solutions in concentrations of 5 to 10 mM in DMSO. From each stock solution two independent dilution series were prepared. Based on preliminary experiments, dilution concentrations were chosen such that at least five to six concentrations below and above the expected point of precipitation were recorded. To the 96-well plate containing 198 μL aqueous phosphate buffer at pH 7.4, 2 μL of each dilution sample in DMSO was added and shaken for 10 s. at 700 rpm (double orbital). […] The pH was adjusted by adding sulfuric acid. First, the plates were scanned without content to quantify the background, which was later subtracted from the obtained values of each individual well. As blank, 2 μL of neat DMSO was added to the phosphate buffer. Close to the point of precipitation, particle concentration can be assumed to be proportional to the intensity of scattered light. […]

For `CN(C)CCN(C)c1ccc(-c2c(C#N)c(N)nc3sc(C(=O)c4cccc(Cl)c4)c(N)c23)c(Cl)c1` [4h], in data set [1] (3 µM test compound, luciferase readout, ± SD), the “% inhibition ± SD, PfNF54-Luc at 3 µM” value is 99.9 ± 0.1%. Also, the IC50 in data set [1] (from dose-response curves, read-out: IC50 [µM], PfNF54-Luc) is 1.2 µM. For the same molecule, in data set [2], the “S0 pH 7.4, exp (kinetic solubility)” value came to 4.8 ± 0.9 µM.

As usually defined, the IC50 is the midpoint of a concentration-inhibition curve.
